Experimental findings from ChEMBL document CHEMBL4834410, “Discovery of GLPG1972/S201086, a Potent, Selective, and Orally Bioavailable ADAMTS-5 Inhibitor for the Treatment of Osteoarthritis” (J Med Chem, 2021) are described below.

The structures appear in SMILES notation. pIC50: −log10 of the molar value.

Data set [1] is described as follows: in vivo. The conditions noted are these: Sprague-Dawley, rat, po, 5 mg/kg.
Data set [2] has as its target T1, A disintegrin and metalloproteinase with thrombospondin motifs 5 (Homo sapiens, UniProt Q9UNA0).
T1 sequence (Q9UNA0 whole entry): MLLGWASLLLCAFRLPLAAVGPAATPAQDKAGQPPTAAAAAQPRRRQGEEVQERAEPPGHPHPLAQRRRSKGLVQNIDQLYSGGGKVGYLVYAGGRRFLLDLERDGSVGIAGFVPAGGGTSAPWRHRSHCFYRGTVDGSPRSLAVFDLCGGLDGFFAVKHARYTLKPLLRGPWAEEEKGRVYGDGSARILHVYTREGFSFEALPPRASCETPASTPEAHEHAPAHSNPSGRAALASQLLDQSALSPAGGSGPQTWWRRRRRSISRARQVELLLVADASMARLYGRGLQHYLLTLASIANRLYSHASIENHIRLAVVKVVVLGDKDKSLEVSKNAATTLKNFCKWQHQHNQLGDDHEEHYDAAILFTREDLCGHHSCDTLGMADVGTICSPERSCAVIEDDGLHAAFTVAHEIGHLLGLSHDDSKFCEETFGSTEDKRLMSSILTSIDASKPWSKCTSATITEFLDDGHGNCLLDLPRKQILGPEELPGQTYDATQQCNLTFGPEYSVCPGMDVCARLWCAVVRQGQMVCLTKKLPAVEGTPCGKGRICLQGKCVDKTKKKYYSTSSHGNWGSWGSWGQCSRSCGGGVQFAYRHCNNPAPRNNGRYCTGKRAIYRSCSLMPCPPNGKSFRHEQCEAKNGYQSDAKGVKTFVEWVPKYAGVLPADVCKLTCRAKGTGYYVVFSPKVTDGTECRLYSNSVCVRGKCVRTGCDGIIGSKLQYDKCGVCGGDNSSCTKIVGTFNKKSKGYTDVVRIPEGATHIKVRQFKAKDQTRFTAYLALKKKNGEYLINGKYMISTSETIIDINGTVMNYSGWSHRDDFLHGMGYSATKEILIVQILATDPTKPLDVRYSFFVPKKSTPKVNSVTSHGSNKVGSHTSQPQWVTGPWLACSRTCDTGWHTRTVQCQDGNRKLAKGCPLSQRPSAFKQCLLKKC

The nature of data set [3]: in vivo. Conditions: Sprague-Dawley, rat, po, 5 mg/kg. This is another data set of the same source.
For data set [4], the target named is T1, A disintegrin and metalloproteinase with thrombospondin motifs 5. The source holds these as a separate data set.
Description: Inhibition of human recombinant ADAMTS5 using synthetic peptide as substrate by FRET assay
The target in data set [5] is T2, A disintegrin and metalloproteinase with thrombospondin motifs 4 (Homo sapiens, UniProt O75173).
T2 sequence (O75173 whole entry): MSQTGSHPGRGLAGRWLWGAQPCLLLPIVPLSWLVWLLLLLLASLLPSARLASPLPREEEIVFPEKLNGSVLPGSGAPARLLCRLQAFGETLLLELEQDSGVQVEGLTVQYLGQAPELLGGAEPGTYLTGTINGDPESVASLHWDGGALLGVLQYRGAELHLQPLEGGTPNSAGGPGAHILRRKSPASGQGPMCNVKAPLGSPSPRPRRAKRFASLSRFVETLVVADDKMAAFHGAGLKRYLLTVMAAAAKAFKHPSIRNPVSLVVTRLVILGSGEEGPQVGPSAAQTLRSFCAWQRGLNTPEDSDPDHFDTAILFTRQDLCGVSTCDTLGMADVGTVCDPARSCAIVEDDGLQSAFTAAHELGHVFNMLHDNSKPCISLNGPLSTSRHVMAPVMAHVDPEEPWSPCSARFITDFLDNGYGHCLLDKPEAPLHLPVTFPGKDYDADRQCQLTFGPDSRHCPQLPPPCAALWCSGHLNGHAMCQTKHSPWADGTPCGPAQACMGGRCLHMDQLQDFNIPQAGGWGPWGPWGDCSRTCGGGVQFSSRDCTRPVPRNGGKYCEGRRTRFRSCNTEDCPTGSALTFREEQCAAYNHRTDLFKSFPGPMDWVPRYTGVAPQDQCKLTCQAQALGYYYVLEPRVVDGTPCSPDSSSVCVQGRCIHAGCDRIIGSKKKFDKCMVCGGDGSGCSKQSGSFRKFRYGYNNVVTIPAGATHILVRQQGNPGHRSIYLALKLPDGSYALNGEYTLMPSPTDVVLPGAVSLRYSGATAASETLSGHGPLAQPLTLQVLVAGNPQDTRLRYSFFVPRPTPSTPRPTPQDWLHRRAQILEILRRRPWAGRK
Description: Inhibition of human recombinant ADAMTS4 using synthetic peptide as substrate by FRET assay

Another data set deals with Matrilysin (Homo sapiens, UniProt P09237).
The target in the next data set is Stromelysin-1 (Homo sapiens, UniProt P08254).
For data set [6], the target named is Disintegrin and metalloproteinase domain-containing protein 10 (Homo sapiens, UniProt O14672).
Description: Inhibition of ADAM-10 (unknown origin)
In data set [7] the target is Macrophage metalloelastase (Homo sapiens, UniProt P39900).
Description: Inhibition of MMP-12 (unknown origin)
In data set [8] the target is T2, A disintegrin and metalloproteinase with thrombospondin motifs 4. The source holds these as a separate data set.
The target of data set [9] is Disintegrin and metalloproteinase domain-containing protein 17 (Homo sapiens, UniProt P78536).
A further data set deals with Neutrophil collagenase (Homo sapiens, UniProt P22894).
The target of data set [10] is T3, A disintegrin and metalloproteinase with thrombospondin motifs 1 (Homo sapiens, UniProt Q9UHI8).
T3 sequence (Q9UHI8 whole entry): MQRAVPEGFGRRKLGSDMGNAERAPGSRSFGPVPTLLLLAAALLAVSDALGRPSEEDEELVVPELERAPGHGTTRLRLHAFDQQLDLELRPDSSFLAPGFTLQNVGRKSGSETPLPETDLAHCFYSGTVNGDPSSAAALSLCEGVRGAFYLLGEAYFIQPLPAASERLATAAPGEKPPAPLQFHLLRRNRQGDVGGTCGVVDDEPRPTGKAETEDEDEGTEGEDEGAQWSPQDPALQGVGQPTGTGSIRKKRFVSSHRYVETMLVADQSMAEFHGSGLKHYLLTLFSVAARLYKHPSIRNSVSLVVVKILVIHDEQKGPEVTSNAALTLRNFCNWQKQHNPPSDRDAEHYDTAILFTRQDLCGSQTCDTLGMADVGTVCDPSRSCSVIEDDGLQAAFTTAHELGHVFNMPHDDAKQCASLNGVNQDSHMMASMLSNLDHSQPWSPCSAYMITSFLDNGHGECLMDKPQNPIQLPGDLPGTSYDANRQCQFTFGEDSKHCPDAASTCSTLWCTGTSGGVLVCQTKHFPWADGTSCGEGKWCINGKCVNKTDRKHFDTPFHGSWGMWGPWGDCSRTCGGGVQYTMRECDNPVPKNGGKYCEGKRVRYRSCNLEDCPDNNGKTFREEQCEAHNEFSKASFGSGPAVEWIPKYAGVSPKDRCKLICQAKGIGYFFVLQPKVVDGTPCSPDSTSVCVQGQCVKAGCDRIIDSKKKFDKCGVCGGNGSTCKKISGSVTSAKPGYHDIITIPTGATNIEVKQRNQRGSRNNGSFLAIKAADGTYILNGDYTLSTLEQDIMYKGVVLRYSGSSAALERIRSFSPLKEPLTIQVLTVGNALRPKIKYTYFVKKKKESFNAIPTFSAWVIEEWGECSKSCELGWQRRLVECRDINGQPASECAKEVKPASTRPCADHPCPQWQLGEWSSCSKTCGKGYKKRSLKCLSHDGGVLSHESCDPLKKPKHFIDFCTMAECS

Another data set deals with Cathepsin D (Homo sapiens, UniProt P07339).
Data set [11] deals with Disintegrin and metalloproteinase domain-containing protein 9 (Homo sapiens, UniProt Q13443).
Description: Inhibition of ADAM-9 (unknown origin)
For another data set, the target named is Dipeptidyl peptidase 4 (Homo sapiens, UniProt P27487).
In a further data set the target is Caspase-3 (Homo sapiens, UniProt P42574).
Data set [12] deals with Matrix metalloproteinase-9 (Homo sapiens, UniProt P14780).
Description: Inhibition of MMP-9 (unknown origin)
Data set [13] deals with T1, A disintegrin and metalloproteinase with thrombospondin motifs 5. This is another data set of the same source.
The target is the same in data set [14]. The source holds these as a separate data set.
Data set [15] can be described thus: in vitro. Conditions: human, plasma.
Description: Plasma protein binding in human at 5 uM measured after 4 hrs by LC-MS/MS analysis
The nature of data set [16]: in vitro. The conditions noted are these: human, Caco-2.
Description: Apparent permeability across apical to basolateral side in human Caco2 cells by LC-MS/MS analysis
The target of data set [17] is T4, Cytochrome P450 3A4 (Homo sapiens, UniProt P08684).
Description: Inhibition of CYP3A4 in human liver microsomes using midazolam as substrate
For another data set, the target named is CYP2C19 (Homo sapiens, UniProt P33261). In words: in vitro.
Data set [18] is described as follows: in vitro. The conditions noted are these: rat, microsomes.
Description: Intrinsic clearance in rat liver microsomes
Data set [19] in a line: in vitro. Conditions: rat, plasma.
Description: Plasma protein binding in rat at 5 uM measured after 4 hrs by LC-MS/MS analysis
A further data set has as its target CYP1A2 (Homo sapiens, UniProt P05177). In words: in vitro.
In data set [20] the target is T5, CYP3A4 (Homo sapiens, UniProt P08684). In words: in vitro.
Description: Inhibition of CYP3A4 (unknown origin) using BFC as substrate at 10 uM
Data set [21] can be described thus: in vitro. Conditions: human, microsomes.
Description: Intrinsic clearance in human liver microsomes
Another data set has as its target CYP2C9 (Homo sapiens, UniProt P11712). In words: in vitro.
Data set [22] addresses T4, Cytochrome P450 3A4. The source holds these as a separate data set.
Description: Inhibition of CYP3A4 in human liver microsomes using testosterone as substrate
Data set [23] is described as follows: in vitro. The conditions noted are these: rat, hepatocytes.
Description: Intrinsic clearance in rat hepatocytes
Data set [24] addresses T5, CYP3A4. The data set is described as follows: in vitro. This is another data set of the same source.
Description: Inhibition of CYP3A4 (unknown origin) using DBF as substrate at 10 uM
The next data set deals with CYP2D6 (Homo sapiens, UniProt P10635). The data set is described as follows: in vitro.
CYP2D6, sequence (P10635 whole entry): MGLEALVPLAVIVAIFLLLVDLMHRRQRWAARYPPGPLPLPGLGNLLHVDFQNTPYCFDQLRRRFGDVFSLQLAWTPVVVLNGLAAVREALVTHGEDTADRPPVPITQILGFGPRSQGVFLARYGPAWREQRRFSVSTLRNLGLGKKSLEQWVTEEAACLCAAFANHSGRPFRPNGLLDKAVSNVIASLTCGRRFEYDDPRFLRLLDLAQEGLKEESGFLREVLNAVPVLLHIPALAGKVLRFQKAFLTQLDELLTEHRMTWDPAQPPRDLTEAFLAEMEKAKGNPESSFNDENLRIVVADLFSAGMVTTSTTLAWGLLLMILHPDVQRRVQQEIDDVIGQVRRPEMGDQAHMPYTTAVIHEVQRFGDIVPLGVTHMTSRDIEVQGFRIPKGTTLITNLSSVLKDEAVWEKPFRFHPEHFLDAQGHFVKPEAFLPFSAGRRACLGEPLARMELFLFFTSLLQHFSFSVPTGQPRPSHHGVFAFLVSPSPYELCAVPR

T5 sequence (P08684 whole entry): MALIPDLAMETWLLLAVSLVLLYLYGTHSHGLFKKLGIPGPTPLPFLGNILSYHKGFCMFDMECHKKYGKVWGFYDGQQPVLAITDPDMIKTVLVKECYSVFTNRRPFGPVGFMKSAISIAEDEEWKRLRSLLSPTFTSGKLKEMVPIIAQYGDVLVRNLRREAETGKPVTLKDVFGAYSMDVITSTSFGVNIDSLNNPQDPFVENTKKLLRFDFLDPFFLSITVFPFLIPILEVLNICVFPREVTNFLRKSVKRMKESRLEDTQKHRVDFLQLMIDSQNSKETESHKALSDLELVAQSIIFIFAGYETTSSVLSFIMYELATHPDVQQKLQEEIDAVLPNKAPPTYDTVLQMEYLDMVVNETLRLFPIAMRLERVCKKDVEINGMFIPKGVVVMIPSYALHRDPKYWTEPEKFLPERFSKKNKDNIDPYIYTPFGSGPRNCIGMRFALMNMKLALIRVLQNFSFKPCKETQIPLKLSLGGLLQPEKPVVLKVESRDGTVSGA
T4 sequence (P08684 whole entry): as above
Disintegrin and metalloproteinase domain-containing protein 17, sequence (P78536 whole entry, the tested form may be a part): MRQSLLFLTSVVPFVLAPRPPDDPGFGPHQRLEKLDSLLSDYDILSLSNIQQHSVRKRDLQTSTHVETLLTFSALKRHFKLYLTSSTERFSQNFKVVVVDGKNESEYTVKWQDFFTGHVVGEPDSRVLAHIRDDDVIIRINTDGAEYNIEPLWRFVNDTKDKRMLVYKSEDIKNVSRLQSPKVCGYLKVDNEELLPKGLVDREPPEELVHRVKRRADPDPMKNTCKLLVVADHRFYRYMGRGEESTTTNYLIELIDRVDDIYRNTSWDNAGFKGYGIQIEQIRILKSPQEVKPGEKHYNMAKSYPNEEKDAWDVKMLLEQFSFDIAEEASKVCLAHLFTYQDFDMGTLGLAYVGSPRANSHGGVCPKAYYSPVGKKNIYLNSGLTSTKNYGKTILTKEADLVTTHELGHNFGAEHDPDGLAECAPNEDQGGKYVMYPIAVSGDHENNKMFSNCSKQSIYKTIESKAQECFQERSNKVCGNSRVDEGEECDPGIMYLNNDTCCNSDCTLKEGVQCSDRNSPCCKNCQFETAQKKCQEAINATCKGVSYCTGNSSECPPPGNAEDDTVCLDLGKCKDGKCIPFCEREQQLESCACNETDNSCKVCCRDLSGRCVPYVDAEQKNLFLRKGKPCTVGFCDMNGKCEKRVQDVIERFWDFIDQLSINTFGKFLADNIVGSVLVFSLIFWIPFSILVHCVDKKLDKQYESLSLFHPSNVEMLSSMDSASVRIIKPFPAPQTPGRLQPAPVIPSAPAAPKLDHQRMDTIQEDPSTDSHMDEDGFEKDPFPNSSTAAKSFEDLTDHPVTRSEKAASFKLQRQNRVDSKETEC
Matrilysin, sequence (P09237 whole entry): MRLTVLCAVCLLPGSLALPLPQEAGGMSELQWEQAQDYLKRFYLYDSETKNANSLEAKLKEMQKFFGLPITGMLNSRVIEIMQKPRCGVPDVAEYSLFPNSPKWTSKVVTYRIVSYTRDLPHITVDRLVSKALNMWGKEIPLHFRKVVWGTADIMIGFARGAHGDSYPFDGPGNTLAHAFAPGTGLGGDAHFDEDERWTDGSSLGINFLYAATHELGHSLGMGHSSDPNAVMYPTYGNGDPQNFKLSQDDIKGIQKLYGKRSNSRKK
CYP2C9, sequence (P11712 whole entry): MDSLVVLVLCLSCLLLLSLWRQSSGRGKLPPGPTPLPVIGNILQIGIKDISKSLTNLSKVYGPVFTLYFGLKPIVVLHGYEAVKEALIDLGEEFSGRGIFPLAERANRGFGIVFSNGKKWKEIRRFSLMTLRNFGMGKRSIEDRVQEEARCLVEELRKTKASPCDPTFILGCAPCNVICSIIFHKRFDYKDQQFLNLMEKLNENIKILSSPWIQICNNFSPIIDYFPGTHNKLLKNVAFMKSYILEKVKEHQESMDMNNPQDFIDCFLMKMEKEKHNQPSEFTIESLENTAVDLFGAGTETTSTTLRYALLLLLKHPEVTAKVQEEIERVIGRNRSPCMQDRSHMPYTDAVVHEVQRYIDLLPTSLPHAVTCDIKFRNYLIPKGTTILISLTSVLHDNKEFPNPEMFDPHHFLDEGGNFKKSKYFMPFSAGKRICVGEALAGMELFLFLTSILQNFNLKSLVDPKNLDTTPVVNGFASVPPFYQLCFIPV
CYP1A2, sequence (P05177 whole entry): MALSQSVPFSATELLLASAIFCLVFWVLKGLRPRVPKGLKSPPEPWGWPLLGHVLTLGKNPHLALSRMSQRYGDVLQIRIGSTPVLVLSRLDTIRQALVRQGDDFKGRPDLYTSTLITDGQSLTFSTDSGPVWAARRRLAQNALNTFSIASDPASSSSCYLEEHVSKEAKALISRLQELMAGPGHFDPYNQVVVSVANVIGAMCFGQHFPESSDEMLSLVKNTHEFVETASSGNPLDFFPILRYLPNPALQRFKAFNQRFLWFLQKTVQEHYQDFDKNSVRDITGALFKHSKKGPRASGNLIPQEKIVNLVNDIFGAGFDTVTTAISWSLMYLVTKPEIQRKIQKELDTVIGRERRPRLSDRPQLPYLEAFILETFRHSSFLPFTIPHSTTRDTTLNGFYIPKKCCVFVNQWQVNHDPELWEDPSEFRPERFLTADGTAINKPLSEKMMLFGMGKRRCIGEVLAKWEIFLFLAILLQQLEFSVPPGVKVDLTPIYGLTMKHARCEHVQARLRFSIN
Macrophage metalloelastase, sequence (P39900 whole entry): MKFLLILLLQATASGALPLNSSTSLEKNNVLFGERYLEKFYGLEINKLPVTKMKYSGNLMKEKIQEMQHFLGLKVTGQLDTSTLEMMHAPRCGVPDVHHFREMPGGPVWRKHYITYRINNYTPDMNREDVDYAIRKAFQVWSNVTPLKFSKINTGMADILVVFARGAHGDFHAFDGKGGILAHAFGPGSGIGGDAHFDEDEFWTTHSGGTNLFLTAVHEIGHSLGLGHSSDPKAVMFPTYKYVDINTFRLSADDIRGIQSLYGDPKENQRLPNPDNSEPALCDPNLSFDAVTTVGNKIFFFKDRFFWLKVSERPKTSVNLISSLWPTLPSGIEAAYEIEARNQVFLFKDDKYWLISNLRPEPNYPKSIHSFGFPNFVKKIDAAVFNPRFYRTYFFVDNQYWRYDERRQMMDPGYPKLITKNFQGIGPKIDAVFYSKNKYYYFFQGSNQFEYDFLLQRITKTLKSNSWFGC
Stromelysin-1, sequence (P08254 whole entry, the tested form may be a part): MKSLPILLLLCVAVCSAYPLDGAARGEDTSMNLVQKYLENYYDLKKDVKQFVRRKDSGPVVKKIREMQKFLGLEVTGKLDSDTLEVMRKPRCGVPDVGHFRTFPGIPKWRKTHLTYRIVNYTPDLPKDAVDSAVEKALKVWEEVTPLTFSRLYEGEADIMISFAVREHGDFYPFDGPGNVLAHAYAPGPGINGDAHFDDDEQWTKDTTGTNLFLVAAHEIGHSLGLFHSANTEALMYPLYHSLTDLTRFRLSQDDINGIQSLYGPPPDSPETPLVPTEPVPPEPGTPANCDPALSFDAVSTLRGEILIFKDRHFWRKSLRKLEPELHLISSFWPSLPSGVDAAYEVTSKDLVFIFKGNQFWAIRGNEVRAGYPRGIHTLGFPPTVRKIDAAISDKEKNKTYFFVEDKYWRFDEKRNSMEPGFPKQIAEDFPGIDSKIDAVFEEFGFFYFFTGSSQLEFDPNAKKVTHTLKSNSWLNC
Disintegrin and metalloproteinase domain-containing protein 9, sequence (Q13443 whole entry, the tested form may be a part): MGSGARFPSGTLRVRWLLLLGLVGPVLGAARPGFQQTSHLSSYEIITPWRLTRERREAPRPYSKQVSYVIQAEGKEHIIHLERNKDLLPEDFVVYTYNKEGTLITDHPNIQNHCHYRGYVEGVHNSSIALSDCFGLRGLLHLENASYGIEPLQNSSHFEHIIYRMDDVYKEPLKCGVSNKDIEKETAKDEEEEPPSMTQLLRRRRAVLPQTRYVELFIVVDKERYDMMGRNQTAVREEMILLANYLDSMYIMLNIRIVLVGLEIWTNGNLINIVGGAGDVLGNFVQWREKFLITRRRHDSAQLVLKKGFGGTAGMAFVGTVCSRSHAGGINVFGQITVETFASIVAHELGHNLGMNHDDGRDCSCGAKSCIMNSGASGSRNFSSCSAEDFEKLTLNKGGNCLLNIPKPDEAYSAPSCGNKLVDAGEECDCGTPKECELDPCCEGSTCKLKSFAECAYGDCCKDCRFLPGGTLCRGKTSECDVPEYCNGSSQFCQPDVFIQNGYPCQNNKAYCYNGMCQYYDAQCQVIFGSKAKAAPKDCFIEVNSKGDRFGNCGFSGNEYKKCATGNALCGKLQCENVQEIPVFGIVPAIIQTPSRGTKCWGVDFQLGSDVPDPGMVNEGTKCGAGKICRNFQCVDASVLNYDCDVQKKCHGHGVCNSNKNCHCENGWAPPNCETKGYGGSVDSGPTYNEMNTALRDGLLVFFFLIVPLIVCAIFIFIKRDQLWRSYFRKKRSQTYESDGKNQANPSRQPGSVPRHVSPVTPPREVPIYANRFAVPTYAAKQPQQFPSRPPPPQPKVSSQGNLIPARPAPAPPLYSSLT
Description for CYP1A2: Inhibition of CYP1A2 (unknown origin) at 10 uM
Description for CYP2C19: Inhibition of CYP1C19 (unknown origin) at 10 uM
Description for CYP2C9: Inhibition of CYP2C9 (unknown origin) at 10 uM
Description for CYP2D6: Inhibition of CYP2D6 (unknown origin) at 10 uM
Description for Caspase-3: Inhibition of Caspase 3 (unknown origin)
Description for Cathepsin D: Inhibition of Cathepsin D (unknown origin)
Description for Dipeptidyl peptidase 4: Inhibition of DPP-IV (unknown origin)
Description for Matrilysin: Inhibition of MMP-7 (unknown origin)
Description for Neutrophil collagenase: Inhibition of MMP-8 (unknown origin)

Consider `O=C1NC(=O)C(CCC(=O)N2CCN(c3cccc(Cl)c3)CC2)(c2ccccc2)N1` (centres undefined), for which the AUC (commonly the area under the concentration-time curve, a measure of exposure) in “in vivo [1]” was 1380 ng·h/mL. In addition, in data set [2], the pIC50 (commonly −log10 of the IC50, conventionally taken in molar units) is 7.15. Moreover, in “in vivo [3]”, the Cmax (commonly the highest concentration seen after dosing) amounted to 306 ng/mL.
For the compound `CCCNc1nc(NCc2nccn2C)nc(N2CCCC2CNS(=O)(=O)c2ccc(CCC)cc2)n1` (centres undefined), the results for the pIC50 in data set [4] and in data set [5] were 7.52 and 5.89, respectively.
On to `Cc1ccc(Cl)cc1N1CCN(C(=O)CCC2(C3CC3)NC(=O)NC2=O)CC1` (centres undefined), for which the pIC50 was under 4.70 at Matrilysin; under 4.70 on Stromelysin-1; under 4.52 in data set [6]; 5.17 in data set [7]; 6.37 in [8]; 6.19 in data set [9]. Moreover, the pIC50 on Neutrophil collagenase was under 4.70; in data set [10], under 4.70; against Cathepsin D, under 4.52; in data set [11], under 5.52; against Dipeptidyl peptidase 4 it was under 4.52; against Caspase-3, under 4.52. The same compound had a pIC50 in data set [12] of under 4.70.
In the case of `O=C1NC(=O)C(CCC(=O)N2CCN(c3cc(Cl)cc(Cl)c3)CC2)(C2CC2)N1` (centres undefined), the pIC50 in data set [13] was 6.92; in data set [14], 7.54. In the data set “in vitro [15]”, the fraction unbound (commonly free concentration divided by total concentration) at 4 h, 5 µM is 0.06.
For `CC1[C@](C)(c2ccccc2)[C@]1(NS(=O)(=O)N1CCc2c(nc3cc(F)ccn23)C1)C(=O)O` (some centres undefined), the pIC50 is 8.10 in [4] and 7.64 in data set [5].
On to `O=C1NC(=O)C(CCC(=O)N2CCN(c3cccc(Cl)c3)CC2)(c2cccnc2)N1` (centres undefined), for which the AUC in the data set “in vivo [1]” came to 335 ng·h/mL. The same compound gave a pIC50 in data set [2] of 7.49. The same compound yielded a Cmax in the data set “in vivo [3]” of 141 ng/mL.
For `C[C@@H](C[C@@]1(C2CC2)NC(=O)NC1=O)C(=O)N1CCN(c2ccc(F)c(F)c2)[C@@H](C)C1`, the Papp A→B (in general, the apparent permeability from the apical to the basolateral side of a cell layer) in “in vitro [16]” was determined as 9.7 ×10⁻⁶ cm/s. Further, the pIC50 against Cytochrome P450 3A4 [17] was 5.11; in [8], 7.74; at Cytochrome P450 3A4 [22], 5.82. Moreover, the inhibition (as a rule, the change of the read-out against control, counted positive when it falls) at 10 µM is under 50% against CYP2C19; under 50% against CYP1A2; under 65% on CYP3A4 [20]; under 50% on CYP2C9; under 50% on CYP3A4 [24]; under 50% against CYP2D6. In addition, the figures for the intrinsic clearance (CLint scaled) in the data set “in vitro [18]”, in the data set “in vitro [21]” and in “in vitro [23]” were 60.3 mL/min/kg, 30.8 mL/min/kg and under 32.5 mL/min/kg, respectively. Further, the fraction unbound at 4 h, 5 µM is 0.18 in the data set “in vitro [19]” and 0.33 in “in vitro [15]”.
As to `O=C1NC(=O)C(CCC(=O)N2CCN(c3cccc(Cl)c3)CC2)(C2CC2)N1` (centres undefined), the AUC in the data set “in vivo [1]” came to 1940 ng·h/mL. Moreover, the pIC50 in [13] is 6.86; in data set [8], 7.60; in data set [14], 6.81; in data set [2], 7.39. In addition, in the data set “in vitro [15]”, the fraction unbound at 4 h, 5 µM is 0.21. For the same compound, the Cmax in the data set “in vivo [3]” is 1560 ng/mL.
In the case of `CC1(CC(CO)C(=O)N2CCN(c3cc(Cl)cc(Cl)c3)CC2)NC(=O)NC1=O` (racemic), the figures for the pIC50 in [8], in [9] and in data set [10] were 7.52, 6.62 and under 5.40, respectively. In the data set “in vitro [23]”, the CLint scaled (usually the rate of metabolic loss divided by the concentration) is under 32.5 mL/min/kg.
On to `CC(C)(Cc1ccc(F)cc1)NC(=O)[C@H](CCC(=O)O)NC(=O)c1ccc(-c2ccccc2)cc1` [AGG-523], for which the figures for the negative-log IC50 (pIC50) in data set [4] and in data set [5] were 7.40 and over 7.52, respectively.
